According to patent US11141421B2, “Antitumor agent for biliary tract cancer and method for treating biliary tract cancer” (FUJIFILM Corporation, priority 2018, dated 2021):

Assays:
tumor = details: orally administered to mice; cited from earlier work
[1] = Side effects / drug associated AE in the clinical trial of Compound A; assay type: in vivo, human
Procedure: (§1) A medication cycle consisting of administration of Compound A via intravenous injection once a week from the 1st week to the 3rd week and cessation of medication in the 4th week was repeated to bile duct cancer patients Specifically, 28 days was set at one cycle, and on the 1st day, 8th day and 15th day, Compound A was administered to the patients. This cycle consisting of 28 days was repeated. A single dose of compound A was set from 40 mg/m^2 to 135 mg/m^2.
Bile duct cancer patient 6 is intrahepatic cholangiocarcinoma. […] Further, due to neutropenia, the dose was changed to 67.5 mg/m^2. Thereafter, SD could be maintained for 34 weeks or more.

bile duct cancer = experiment: Administration of Compound A via intravenous injection to bile duct cancer patients; therapeutic effects judged by MRI image diagnosis; assay type: in vivo, human; parameters: key to Therapeutic effects of the present invention: CR (Complete Response): A state in which the tumor completely disappeared.; PR (Partial Response): A state in which a sum of the sizes of the tumors was reduced by 30% or more.; SD (Stable Disease): A state in which the size of the tumor did not change.; PD (Progressive Disease): A state in which a sum of the sizes of the tumors was increased by 20% or more and also, the size was increased by 5 mm or more even at an absolute value, or a new lesion appeared
Procedure: This liquid pharmaceutical preparation was used in the subsequent therapy. Besides, the therapy was carried out at the University of Texas MD Anderson Cancer Center (hereinafter referred to as MDACC), and at Sarah Cannon Research Institute (hereinafter referred to as SCRI) in Denver, State of Colorado, U.S.A.
as §1
The therapeutic effects were judged according to the following criteria.
Evaluation targets were confirmed by performing image diagnosis using MRI (magnetic resonance imaging), and were then judged according to the following criteria:
CR (Complete Response): A state in which the tumor completely disappeared.
PR (Partial Response): A state in which a sum of the sizes of the tumors was reduced by 30% or more.
PD (Progressive Disease): A state in which a sum of the sizes of the tumors was increased by 20% or more and also, the size was increased by 5 mm or more even at an absolute value, or a new lesion appeared.

## Nc1ccn([C@@H]2S[C@H](CO)[C@@H](O)[C@@H]2F)c(=O)n1 [Compound A, 1-(2-deoxy-2-fluoro-4-thio-β-D-arabinofuranosyl)cytosine]
tumor
  antitumor activity: strong antitumor activity
[1]; bile duct cancer patient 6, dose 90 mg/m^2 (then changed to 67.5 mg/m^2)
  side effect leading to further dose change: neutropenia
[1]; bile duct cancer patient 6, initial dose 135 mg/m^2
  side effects observed: hypotension and suspected bacteremia
[1]; clinical trial, patients including bile duct cancer patients, 40 to 135 mg/m^2 iv
  most common drug associated AE among two or more patients: fever, nausea, chills, itch, irritating, dry skin, skin separation, and fatigue
Bile duct cancer; bile duct cancer patient 1 (intrahepatic bile duct cancer), single dose 40 mg/m^2 iv, days 1, 8, 15 of 28-day cycle
  Therapeutic effects of the present invention: PR (PR (Partial Response): A state in which a sum of the sizes of the tumors was reduced by 30% or more.)
Bile duct cancer; bile duct cancer patient 1, single dose increased to 60 mg/m^2 or 90 mg/m^2
  Therapeutic effect after dose increase: PR (PR (Partial Response): A state in which a sum of the sizes of the tumors was reduced by 30% or more.)
Bile duct cancer; bile duct cancer patient 2 (intrahepatic bile duct cancer), single dose 60 mg/m^2 iv
  Therapeutic effects of the present invention: PR (PR (Partial Response): A state in which a sum of the sizes of the tumors was reduced by 30% or more.)
Bile duct cancer; bile duct cancer patient 3 (bile duct cholangiocarcinoma), initial dose 60 mg/m^2, changed to 90 mg/m^2
  Therapeutic effects of the present invention: SD
Bile duct cancer; bile duct cancer patient 3, initial dose 60 mg/m^2, changed to 90 mg/m^2
  time for which SD could be maintained: ≥ 32 weeks
Bile duct cancer; bile duct cancer patient 4, single dose 90 mg/m^2 iv
  Therapeutic effects of the present invention: PD (PD (Progressive Disease): A state in which a sum of the sizes of the tumors was increased by 20% or more and also, the size was increased by 5 mm or more even at an absolute value, or a new lesion appeared.)
Bile duct cancer; bile duct cancer patient 5, single dose 90 mg/m^2 iv
  Therapeutic effects of the present invention: SD
Bile duct cancer; bile duct cancer patient 6 (intrahepatic cholangiocarcinoma), single dose 90 mg/m^2 in Table 1 (text: 135, then 90, then 67.5 mg/m^2)
  Therapeutic effects of the present invention: SD
Bile duct cancer; bile duct cancer patient 6, after dose changes 135 to 90 to 67.5 mg/m^2
  time for which SD could be maintained: ≥ 34 weeks
